Series [1] can be described thus: adverse reaction in a treated coronavirus patient. It is filed as in vivo, human. The settings on record: person, doxycycline 100 mg bd added to amantadine, ivermectin, zinc. The protocol:
A front-line worker and was diagnosed with coronavirus in association with fevers, aches and fatigue. They are commenced on amantadine orally using the standard capsule of […] once daily for ten days. […] They developed a rash to the doxycycline when added and this was changed to azithromycin 250 mg bd for the duration of the ten-day course.

For series [2] the following is noted: in vivo; cited from earlier work.
The conditions of series [3]: in vivo; cited from earlier work. This is another data set of the same source.
Series [4] can be described thus: ivermectin toxicity at high doses, relation to LD50. The settings on record: 2000 mcg/kg (120 mg in a 60 kg adult). Type of series: in vivo.
The conditions of series [5]: more than 200 mcg/kg (12 mg), 2000 mcg/kg (120 mg) and above; cited from earlier work.

Take `C[C@H]1c2cccc(O)c2C(=O)C2=C(O)[C@]3(O)C(=O)C(C(N)=O)=C(O)[C@@H](N(C)C)[C@@H]3[C@@H](O)[C@@H]21` [doxycycline]: the adverse reaction result in series [1] is “rash”. As to `CCN(CCO)CCCC(C)Nc1ccnc2cc(Cl)ccc12` (centres unmarked) [hydroxychloroquine], in series [2], the half-life is on record as 40 days.

With ivermectin, the excretion entry in series [3] was “mostly in the feces”. Moreover, the “dose as percentage of the LD50” value in series [4] was determined as 7%. In series [5], the “toxicity at doses above the accepted therapeutic dose” value is given as “without any increase in ivermectin toxicity”.

A word on the half-life: it is the time needed for the level to fall by half in the phase considered.

The values above are taken from patent US20240075049A1 (priority 2020, published 2024).
